Results taken from US10517889B2, “Modulators of SMAD7 expression” (Ionis Pharmaceuticals, Inc., priority 2017, dated 2019).
Strand notation (5' to 3'): a small letter for the sugar, then the base; units joined by * are phosphorothioate-linked, units joined directly phosphodiester-linked; [ ] holds rarer units or linkages, { } end groups; capitals alone tell only the bases. e = 2'-O-(2-methoxyethyl) (MOE); [5mC] = 5-methylcytosine; d = 2'-deoxy (DNA)

Columns and labels:
human SMAD7 mRNA [1] = test: Antisense inhibition of human SMAD7 mRNA expression in Hep3B cells by 5-10-5 MOE gapmers, single concentration, electroporation, RT-PCR (Example 1, Study 1 and 2); assay type: cell-based; details: for % Inhibition of SMAD7 mRNA: electroporation with 15,000 nM antisense oligonucleotide (Study 2); for % Inhibition: Study 2, electroporation with 15,000 nM antisense oligonucleotide
Method in brief: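 Readout is percent SMAD7 mRNA inhibition versus untreated cells, measured by qRT-PCR (RTS5062) and corrected for total RNA by RIBOGREEN. Oligonucleotide, 5,000 nM or 15,000 nM, was delivered by electroporation into Hep3B cells at 20,000 per well. RNA was collected about 24 h later.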

human SMAD7 mRNA [2] = test: Dose-dependent inhibition of human SMAD7 mRNA expression in Hep3B cells (Example 3, Study 1 and 2); assay type: cell-based; details: electroporation; for % inhibition of SMAD7 mRNA expression: approximately 16 hours; for IC50: Study 1 (312.5-20000 nM)
Method in brief: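 Hep3B cells, 20,000 per well, electroporated with antisense oligonucleotide at 0.31, 1.25, 5.00 or 20.00 μM (first series) or 0.74, 2.22, 6.67 or 20.00 μM (second series). After ~16 h, SMAD7 mRNA measured by RT-qPCR (RTS5062), normalised to RIBOGREEN total RNA. Percent inhibition vs untreated cells; IC50 derived.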

[3] = electroporation, 15,000 nM antisense oligonucleotide (Study 2), 5-10-5 MOE gapmers targeting SEQ ID NO: 1 and 2
[4] = 312.5 nM, Study 1, relative to untreated control cells
[5] = electroporation, 15,000 nM, approximately 24 hours, relative to untreated control cells, gapmers targeting SEQ ID NO: 1 and 2
[6] = 5-10-5 MOE gapmers targeting SEQ ID NO: 1 and 2

Substance	% inhibition of SMAD7 mRNA expression (human SMAD7 mRNA [1]; [3])	% inhibition of SMAD7 mRNA expression (human SMAD7 mRNA [2]; [4])	% inhibition of SMAD7 mRNA expression (human SMAD7 mRNA [2]; 1250.0 nM, Study 1)	% inhibition of SMAD7 mRNA expression (human SMAD7 mRNA [2]; 5000.0 nM, Study 1)	% inhibition of SMAD7 mRNA expression (human SMAD7 mRNA [2]; 20000.0 nM, Study 1)	IC50 (human SMAD7 mRNA [2])	% inhibition of SMAD7 mRNA expression (human SMAD7 mRNA [1]; [5])	% Inhibition of SMAD7 mRNA (human SMAD7 mRNA [1]; [6])	% Inhibition (human SMAD7 mRNA [1]; [6])	% inhibition of SMAD7 mRNA expression (human SMAD7 mRNA [1]; electroporation, 5,000 nM, approximately 24 hours, relative to untreated control cells, gapmers targeting SEQ ID NO: 1 and 2)
771770 (antisense e[5mC]*eT*eG*eT*eT*dG*dG*d[5mC]*dA*dG*dT*dG*d[5mC]*dT*d[5mC]*e[5mC]*e[5mC]*eA*e[5mC]*e[5mC]) [compound 771770]	61%	0%	11%	27%	51%	> 20 µM				
771773 (antisense eT*e[5mC]*eT*eT*eT*dT*d[5mC]*dG*d[5mC]*dA*dT*d[5mC]*d[5mC]*dT*d[5mC]*eA*eG*eG*eA*eA) [compound 771773]		0%	0%	0%	42%	> 20 µM	57%			
771776 (antisense e[5mC]*eT*e[5mC]*eA*eG*d[5mC]*dA*dA*dG*d[5mC]*dT*d[5mC]*dA*dG*dT*eT*e[5mC]*e[5mC]*eT*eG) [compound 771776]	38%	10%	13%	36%	67%	9 µM		54%		
771777 (antisense e[5mC]*e[5mC]*e[5mC]*eT*e[5mC]*dA*dG*dT*d[5mC]*dT*d[5mC]*dA*dG*dA*dT*eA*eA*e[5mC]*eA*eG) [compound 771777]	50%	0%	0%	27%	50%	8 µM				
771778 (antisense eT*eG*eA*eG*eT*dA*dA*dA*d[5mC]*dA*dA*dT*dA*d[5mC]*d[5mC]*e[5mC]*eT*e[5mC]*eA*eG) [compound 771778]	66%	48%	0%	37%	55%	> 20 µM				
771782 (antisense eT*eA*eG*eG*eA*d[5mC]*dT*dG*dG*dA*dA*dG*dA*dG*d[5mC]*eT*eT*eT*eG*eG) [compound 771782]		0%	9%	27%	38%	> 20 µM			50%	
771786 (antisense eA*eG*e[5mC]*eT*e[5mC]*dA*dA*dA*d[5mC]*dT*dT*dT*dG*dA*dA*eG*e[5mC]*e[5mC]*eT*eT) [compound 771786]	56%	2%	0%	53%	40%	> 20 µM				
771788 (antisense e[5mC]*e[5mC]*eA*eA*e[5mC]*dT*d[5mC]*dT*dG*dA*dA*d[5mC]*dG*dG*dA*eA*eA*eG*eA*eA) [compound 771788]		1%	0%	0%	0%	> 20 µM			30%	
771793 (antisense eA*eA*eG*eT*e[5mC]*d[5mC]*d[5mC]*dT*dA*dA*d[5mC]*dG*dA*d[5mC]*d[5mC]*eA*eG*eG*e[5mC]*e[5mC]) [compound 771793]	58%	16%	33%	38%	57%	12 µM				
771794 (antisense eG*eA*eA*eG*e[5mC]*dA*dA*dG*dT*d[5mC]*dA*d[5mC]*dT*dG*d[5mC]*e[5mC]*eT*eT*e[5mC]*eT) [compound 771794]	68%	0%	0%	27%	41%	> 20 µM				
771795 (antisense e[5mC]*eG*eT*e[5mC]*eT*dG*d[5mC]*dG*dG*d[5mC]*dA*dA*dA*dA*d[5mC]*e[5mC]*e[5mC]*eA*e[5mC]*e[5mC]) [compound 771795]		9%	22%	51%	58%	8 µM			59%	53%
771797 (antisense eG*e[5mC]*eA*e[5mC]*eA*dG*dA*d[5mC]*dT*dG*d[5mC]*d[5mC]*dA*dA*dA*eT*e[5mC]*eA*e[5mC]*eA) [compound 771797]		1%	0%	15%	35%	> 20 µM	62%			
771799 (antisense e[5mC]*eT*eT*e[5mC]*e[5mC]*dA*dA*d[5mC]*dA*d[5mC]*dA*dT*dG*d[5mC]*dT*e[5mC]*eT*eG*e[5mC]*eA) [compound 771799]		0%	8%	28%	48%	> 20 µM			57%	
771808 (antisense e[5mC]*e[5mC]*e[5mC]*e[5mC]*eA*dA*dA*dG*dT*d[5mC]*d[5mC]*dA*d[5mC]*dG*d[5mC]*eT*e[5mC]*eA*eT*eG) [compound 771808]	32%	10%	0%	23%	66%	16 µM		54%		
771815 (antisense e[5mC]*eT*e[5mC]*e[5mC]*e[5mC]*dT*dT*dT*dT*d[5mC]*dA*d[5mC]*dT*dG*d[5mC]*eT*e[5mC]*e[5mC]*eA*e[5mC]) [compound 771815]		0%	0%	22%	46%	> 20 µM			70%	
771820 (antisense eG*eG*eT*e[5mC]*eA*dA*dA*d[5mC]*dT*dT*dG*dT*dG*dG*dT*eA*eA*eA*eA*eT) [compound 771820]		3%	3%	7%	7%	> 20 µM			29%	
771821 (antisense eG*eT*eT*e[5mC]*e[5mC]*dT*dT*dA*dT*dA*dG*dA*dT*dT*dA*eT*e[5mC]*e[5mC]*eA*eA) [compound 771821]		0%	9%	27%	46%	> 20 µM	60%			
771822 (antisense e[5mC]*eA*e[5mC]*e[5mC]*eA*dA*dA*dA*d[5mC]*dA*dA*dG*dT*dG*dT*e[5mC]*eT*eA*e[5mC]*e[5mC]) [compound 771822]		0%	0%	30%	45%	> 20 µM			44%	
771825 (antisense e[5mC]*eT*e[5mC]*eT*e[5mC]*dA*dT*dT*dT*d[5mC]*dT*dG*dG*dA*dA*e[5mC]*e[5mC]*e[5mC]*eA*e[5mC]) [compound 771825]	76%	15%	29%	17%	66%	15 µM				
771831 (antisense e[5mC]*eG*eA*eT*e[5mC]*dA*dT*dT*dT*dT*d[5mC]*dT*dA*d[5mC]*dA*e[5mC]*e[5mC]*eT*eT*eT) [compound 771831]		0%	13%	32%	51%	16 µM			66%	
771836 (antisense eT*eG*eT*eT*eG*dA*dG*dG*dA*d[5mC]*dT*d[5mC]*d[5mC]*d[5mC]*d[5mC]*eA*eG*e[5mC]*e[5mC]*eA) [compound 771836]		6%	25%	22%	41%	> 20 µM			28%	
771838 (antisense eG*eA*eA*e[5mC]*eT*d[5mC]*d[5mC]*dT*dG*d[5mC]*dA*dG*dG*dA*dT*eG*eA*eG*eG*eG) [compound 771838]		0%	24%	26%	43%	> 20 µM			53%	
